Source: the supplement of paper PMC10307832

Key:
Test in all cases: relative viability (nuclei count vs DMSO), 5 days (fraction); higher = more cells survive
NCI-H2170 = conditions: first compound 0.1 µM
Procedure, shortened: (§1)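 Cells from lung cancer lines were seeded into 1536-well plates and, one day later, dosed by pin tool. Treatments were either a single drug or a fixed dose of an anchor drug with five library-drug doses (not always all listed) in √10 steps. After 5 days, nuclei were stained in a one-step fixation (final 0.05% Triton X-100, 1% formaldehyde, 1 ug/ml Hoechst) and counted on 4× images, and relative viability is the treated-to-vehicle nuclei ratio, as the median of duplicate plates.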

LOU-NH91 = system: LOU-NH91
Procedure, shortened: as §1

SW 900 = system: SW 900
Procedure, shortened: as §1

NCI-H358 = system: NCI-H358
Procedure, shortened: as §1

NCI-H520 = system: NCI-H520
Procedure, shortened: as §1

HCC-827 = system: HCC-827
Procedure, shortened: as §1

COR-L 105 = system: COR-L 105
Procedure, shortened: as §1

LCLC-103H = system: LCLC-103H
Procedure, shortened: as §1

NCI-H2023 = system: NCI-H2023
Procedure, shortened: as §1

NCI-H1944 = system: NCI-H1944
Procedure, shortened: as §1

NCI-H1993 = system: NCI-H1993
Procedure, shortened: as §1

Cc1cn(-c2cc(NC(=O)c3ccc(C)c(Nc4nccc(-c5cccnc5)n4)c3)cc(C(F)(F)F)c2)cn1 [Nilotinib] + COc1cc2c(Oc3ccc(NC(=O)C4(C(=O)Nc5ccc(F)cc5)CC4)cc3F)ccnc2cc1OCCCN1CCOCC1 [Foretinib] (partner 0.25 µM)
relative viability (NCI-H2170): 1.01
relative viability (LOU-NH91; first compound 0.001 µM): 0.995
relative viability (LOU-NH91; first compound 0.003162 µM): 0.961
relative viability (LOU-NH91; first compound 0.01 µM): 0.985
relative viability (LOU-NH91; first compound 0.03162 µM): 0.935
relative viability (LOU-NH91; first compound 0.1 µM): 0.92
relative viability (SW 900; first compound 0.001 µM): 0.664
relative viability (SW 900; first compound 0.003162 µM): 0.814
relative viability (SW 900; first compound 0.01 µM): 1.09
relative viability (SW 900; first compound 0.03162 µM): 0.639
relative viability (SW 900; first compound 0.1 µM): 0.902
relative viability (NCI-H358; first compound 0.001 µM): 0.655
relative viability (NCI-H358; first compound 0.003162 µM): 0.8
relative viability (NCI-H358; first compound 0.01 µM): 0.818
relative viability (NCI-H358; first compound 0.03162 µM): 0.446
relative viability (NCI-H358; first compound 0.1 µM): 0.346
relative viability (NCI-H520; first compound 0.001 µM): 0.757
relative viability (NCI-H520; first compound 0.003162 µM): 1.03
relative viability (NCI-H520; first compound 0.01 µM): 0.91
relative viability (NCI-H520; first compound 0.03162 µM): 0.684
relative viability (NCI-H520; first compound 0.1 µM): 0.688
relative viability (HCC-827; first compound 0.003162 µM): 1.13
relative viability (HCC-827; first compound 0.01 µM): 1.06
relative viability (HCC-827; first compound 0.03162 µM): 0.939
relative viability (HCC-827; first compound 0.1 µM): 0.938
relative viability (COR-L 105; first compound 0.001 µM): 1.08
relative viability (COR-L 105; first compound 0.01 µM): 1.45
relative viability (COR-L 105; first compound 0.03162 µM): 0.99
relative viability (COR-L 105; first compound 0.1 µM): 0.99
relative viability (LCLC-103H; first compound 0.001 µM): 0.737
relative viability (LCLC-103H; first compound 0.003162 µM): 0.86
relative viability (LCLC-103H; first compound 0.01 µM): 0.837
relative viability (LCLC-103H; first compound 0.03162 µM): 0.581
relative viability (LCLC-103H; first compound 0.1 µM): 0.67
relative viability (NCI-H2023; first compound 0.001 µM): 0.839
relative viability (NCI-H2023; first compound 0.01 µM): 1.01
relative viability (NCI-H2023; first compound 0.03162 µM): 0.88
relative viability (NCI-H2023; first compound 0.1 µM): 0.875
relative viability (NCI-H1944; first compound 0.001 µM): 0.907
relative viability (NCI-H1944; first compound 0.003162 µM): 1.05
relative viability (NCI-H1944; first compound 0.01 µM): 1.06
relative viability (NCI-H1944; first compound 0.03162 µM): 0.739
relative viability (NCI-H1993; first compound 0.001 µM): 0.823
relative viability (NCI-H1993; first compound 0.003162 µM): 0.871
relative viability (NCI-H1993; first compound 0.01 µM): 0.989
relative viability (NCI-H1993; first compound 0.03162 µM): 0.742
relative viability (NCI-H1993; first compound 0.1 µM): 0.839
